Data as given in patent US20260217701A1, “SELECTIVE BET INHIBITORS AND USES THEREOF” (Tay Therapeutics Limited, priority 2022, published 2026).
Values joined by “and” are separate entries in the source; they are usually repeats but may differ in a detail not shown here. Equal values may be shown once.

Test system: imiquimod-induced psoriasis
Assay: Imiquimod-induced psoriasis model
Type: in vivo, mice
Settings: for Body Weight D1: Day 1 (before treatment start on Day 8); for Body Weight D1 / Body Weight D3 / Body Weight D5 / Body Weight D7 / Body Weight D8 / Body Weight D9 / Body Weight D10 / Body Weight D11 / Body Weight D12 / Body Weight D13 / Body Weight D14 / Body Weight D15 / MBWC D1-D8 / MBWC D8-D15 / PASI Scores: individual animals; for Body Weight D3: Day 3 (before treatment start on Day 8); for Body Weight D5: Day 5 (before treatment start on Day 8); for Body Weight D7: Day 7 (before treatment start on Day 8); for Body Weight D8: Day 8 (first day of treatment); for Body Weight D9: Day 9; for Body Weight D10: Day 10; for Body Weight D11: Day 11; for Body Weight D12: Day 12; for Body Weight D13: Day 13; for Body Weight D14: Day 14; for Body Weight D15: Day 15; for MBWC D1-D8: body weight change Day 1 to Day 8 (before treatment); for MBWC D8-D15: body weight change Day 8 to Day 15 (treatment period); for PASI Scores: IMI + Compound A 1 mg/kg
Summary of the method: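 Mice given topical imiquimod (5% cream) daily on depilated backs Days 1–14; Compound A in 5% DMSO/40% PEG-400/55% saline from Day 8, clobetasol topical as reference. Daily PASI (erythema, induration, peeling, each 0–4, summed) Days 8–15; spleen weight, open-field behaviour, serum IL-1B, IL-6, IL-17, TNF-α, IL-22, IL-23 at Day 15.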

[1] = IMI + 1 mg/kg, 1 mg/kg, in g (unit assumed)
[2] = IMI + 3 mg/kg, 3 mg/kg, in g (unit assumed)
[3] = IMI + 10 mg/kg, 10 mg/kg, in g (unit assumed)

Cn1cc(-c2ccccc2)c(-c2cn(C)c(=O)c3[nH]c(-c4cnn(C(F)(F)F)c4)cc23)cc1=O [Compound A, 6-methyl-4-(1-methyl-2-oxo-5-phenyl-1,2-dihydropyridin-4-yl)-2-(1-(trifluoromethyl)-1H-pyrazol-4-yl)-1,6-dihydro-7H-pyrrolo[2,3-c]pyridin-7-one] was tested, and the “PASI score improvement by day 15” value (1 mg/kg) was greater than 80%, the “PASI score improvement by day 15” value (3 mg/kg) was greater than 90% and the “symptoms by day 15 (representative images)” value (3 mg/kg) was “nearly entirely symptom free”. For the same compound, the “PASI-90 (change in PASI score ≥90%) by day 7 of treatment” value (3 mg/kg IP once daily) was “surpassed PASI-90”, the “PASI score improvement by day 15” value (10 mg/kg) was greater than 90% and the “efficacy on the treatment of psoriasis” value (3 tested doses (1, 3, 10 mg/kg)) was “very good efficacy”. For the same compound, the licking scoring (D15) was “effective in reducing licking scoring”, the rearing behavior (D15, open field) was “restored rearing behavior” and the “Body Weight D1” value [1] was 16.93 and 17.80 and 16.08 and 16.97 and 17.74 and 17.12 and 18.36 and 17.34. The “Body Weight D3” value [1] was 15.40 and 16.02 and 15.09 and 15.92 and 16.29 and 16.59 and 16.98 and 15.19, the “Body Weight D5” value [1] was 15.20 and 16.76 and 15.65 and 16.45 and 16.71 and 17.23 and 17.40 and 15.42 and the “Body Weight D7” value [1] was 15.18 and 17.36 and 15.85 and 16.10 and 16.71 and 17.27 and 17.41 and 15.38. For the same compound, the “Body Weight D8” value [1] was 14.60 and 16.99 and 15.82 and 16.44 and 16.60 and 17.49 and 16.66 and 14.75, the “Body Weight D9” value [1] was 14.63 and 17.16 and 15.82 and 16.15 and 16.59 and 17.04 and 16.41 and 15.55 and the “Body Weight D10” value [1] was 14.70 and 16.93 and 15.61 and 15.89 and 16.21 and 16.73 and 16.12 and 15.11. For the same compound, the “Body Weight D11” value [1] was 14.84 and 17.22 and 15.81 and 15.74 and 16.25 and 16.90 and 16.89 and 15.58, the “Body Weight D12” value (IMI + 1 mg/kg, 1 mg/kg) was 14.87 and 16.99 (2×) and 15.46 and 15.54 and 17.30 and 17.06 and 15.66 and the “Body Weight D13” value [1] was 15.05 and 17.40 and 16.20 and 15.94 and 16.75 and 17.05 and 16.69 and 15.46. The “Body Weight D14” value [1] was 15.56 and 17.50 and 16.49 and 16.50 and 17.20 and 17.24 and 16.86 and 16.35, the “Body Weight D15” value [1] was 15.74 and 17.76 and 16.69 and 17.05 and 17.07 and 17.34 and 17.23 and 16.41 and the “MBWC D1-D8” value (IMI + 1 mg/kg, 1 mg/kg) was −2.33 and −0.81 and −0.26 and −0.53 and −1.14 and 0.37 and −1.70 and −2.59. For the same compound, the “MBWC D8-D15” value (IMI + 1 mg/kg, 1 mg/kg) was 1.14 and 0.77 and 0.87 and 0.61 and 0.47 and −0.15 and 0.57 and 1.66, the “Body Weight D1” value [2] was 17.31 and 16.98 and 19.05 and 16.34 and 18.16 and 17.71 and 15.90 and 17.04 and the “Body Weight D3” value [2] was 15.94 and 14.69 and 16.63 and 15.29 and 15.93 and 15.05 and 14.65 and 15.53. For the same compound, the “Body Weight D5” value [2] was 16.84 and 15.15 and 16.74 and 15.65 and 17.11 and 16.06 and 16.09 and 15.35, the “Body Weight D7” value [2] was 16.64 and 14.71 and 16.54 and 14.84 and 17.16 and 15.73 and 15.75 and 15.45 and the “Body Weight D8” value (IMI + 3 mg/kg, 3 mg/kg) was 16.59 and 14.84 and 16.76 and 15.51 (2×) and 15.95 and 15.14 and 15.67. For the same compound, the “Body Weight D9” value [2] was 16.53 and 14.49 and 16.98 and 15.40 and 16.26 and 15.22 and 15.49 and 14.89, the “Body Weight D10” value [2] was 16.64 and 14.53 and 17.40 and 15.71 and 16.02 and 15.31 and 14.80 and 14.76 and the “Body Weight D11” value [2] was 17.05 and 14.95 and 17.25 and 15.60 and 16.07 and 15.67 and 15.43 and 15.33. The “Body Weight D12” value [2] was 17.56 and 15.38 and 17.88 and 15.18 and 16.82 and 16.07 and 15.80 and 15.88, the “Body Weight D13” value [2] was 17.68 and 16.03 and 18.03 and 15.39 and 16.24 and 16.09 and 15.63 and 15.61 and the “Body Weight D14” value [2] was 17.80 and 16.01 and 17.97 and 15.32 and 16.91 and 16.84 and 15.90 and 15.97. For the same compound, the “Body Weight D15” value (IMI + 3 mg/kg, 3 mg/kg) was 18.44 (2×) and 16.47 (2×) and 15.82 and 16.95 and 16.91 and 16.13, the “MBWC D1-D8” value (IMI + 3 mg/kg, 3 mg/kg) was −0.72 and −2.14 and −2.29 and −0.83 and −2.21 and −2.57 and −0.39 and −1.37 and the “MBWC D8-D15” value (IMI + 3 mg/kg, 3 mg/kg) was 1.85 and 1.63 and 1.68 and 0.31 and 1.00 and 1.77 and 0.62 and 0.80. The “Body Weight D1” value [3] was 17.49 and 17.30 and 19.10 and 19.20 and 19.68 and 17.68 and 16.28 and 17.45, the “Body Weight D3” value [3] was 15.01 and 14.91 and 17.43 and 18.70 and 15.42 and 17.04 and 13.99 and 14.57 and the “Body Weight D5” value (IMI + 10 mg/kg, 10 mg/kg) was 15.12 (2×) and 14.82 and 17.32 and 19.02 and 15.82 and 16.99 and 15.18. The “Body Weight D7” value [3] was 16.33 and 15.77 and 17.25 and 18.62 and 16.18 and 17.36 and 15.18 and 14.93, the “Body Weight D8” value [3] was 16.07 and 15.40 and 17.12 and 18.84 and 15.35 and 16.21 and 14.88 and 14.68 and the “Body Weight D9” value [3] was 15.69 and 15.96 and 16.63 and 19.27 and 15.91 and 16.41 and 14.96 and 14.71. For the same compound, the “Body Weight D10” value [3] was 15.53 and 15.84 and 16.68 and 18.91 and 16.27 and 16.73 and 15.10 and 14.49, the “Body Weight D11” value (IMI + 10 mg/kg, 10 mg/kg) was 15.74 and 15.58 (2×) and 16.84 and 19.15 and 16.81 and 17.05 and 15.32 and the “Body Weight D12” value [3] was 15.83 and 15.88 and 17.03 and 19.25 and 17.13 and 17.19 and 16.27 and 15.58. The “Body Weight D13” value [3] was 17.35 and 16.03 and 17.55 and 19.51 and 16.98 and 17.10 and 16.02 and 15.65, the “Body Weight D14” value [3] was 16.58 and 16.42 and 17.59 and 19.36 and 17.68 and 17.84 and 16.59 and 15.62 and the “Body Weight D15” value [3] was 16.60 and 16.43 and 18.35 and 19.39 and 17.81 and 18.26 and 16.77 and 15.96. The “MBWC D1-D8” value (IMI + 10 mg/kg, 10 mg/kg) was −1.42 and −1.90 and −1.98 and −0.36 and −4.33 and −1.47 and −1.40 and −2.77, the “MBWC D8-D15” value (IMI + 10 mg/kg, 10 mg/kg) was 0.53 and 1.03 and 1.23 and 0.55 and 2.46 and 2.05 and 1.89 and 1.28 and the “PASI Scores” value (D8 (day treatment started), 1 mg/kg) was 8 (4×) and 6 (2×) and 7 (2×). The “PASI Scores” value (D9, 1 mg/kg) was 7 (3×) and 6 (3×) and 9 and 8, the “PASI Scores” value (D10, 1 mg/kg) was 7 and 6 (3×) and 5 (3×) and 8 and the “PASI Scores” value (D11, 1 mg/kg) was 6 (3×) and 4 (2×) and 5 and 8 and 7.
